Activity calls are given as the source filed them. No rule for the calls is given here.

The test system of this data set is CCRIS mutagenicity, Ames/micronucleus/aberration tests. Description: CCRIS mutagenicity studies.
Setting [1] is: Test System: AMES SALMONELLA TYPHIMURIUM, Strain/Indicator: TA98, Metabolic Activation: NONE, Method: STANDARD PLATE.
[2] abbreviates: Test System: AMES SALMONELLA TYPHIMURIUM, Strain/Indicator: TA100, Metabolic Activation: NONE, Method: STANDARD PLATE.
[3] abbreviates: Test System: AMES SALMONELLA TYPHIMURIUM, Strain/Indicator: TA1535, Metabolic Activation: NONE, Method: STANDARD PLATE.
Where [4] appears, read: Test System: AMES SALMONELLA TYPHIMURIUM, Strain/Indicator: TA1537, Metabolic Activation: NONE, Method: STANDARD PLATE.

Turning to `CC(C)[C@]12CC(=O)[C@H](C)[C@H]1C2`, the mutagenic call reads like this: (Test System: AMES SALMONELLA TYPHIMURIUM, Strain/Indicator: TA98, Metabolic Activation: HAMSTER LIVER S-9, AROCLOR 1254, Method: STANDARD PLATE) “inactive; negative”; under setting [1], “inactive; negative”; (Test System: AMES SALMONELLA TYPHIMURIUM, Strain/Indicator: TA98, Metabolic Activation: RAT LIVER S-9, AROCLOR 1254, Method: STANDARD PLATE) “inactive; negative”; (Test System: AMES SALMONELLA TYPHIMURIUM, Strain/Indicator: TA100, Metabolic Activation: HAMSTER LIVER S-9, AROCLOR 1254, Method: STANDARD PLATE) “inactive; negative”; under setting [2], “inactive; negative”; (Test System: AMES SALMONELLA TYPHIMURIUM, Strain/Indicator: TA100, Metabolic Activation: RAT LIVER S-9, AROCLOR 1254, Method: STANDARD PLATE) “inactive; negative”. Also, the mutagenic call reads like this: (Test System: AMES SALMONELLA TYPHIMURIUM, Strain/Indicator: TA102, Metabolic Activation: HAMSTER LIVER S-9, AROCLOR 1254, Method: STANDARD PLATE) “inactive; negative”; (Test System: AMES SALMONELLA TYPHIMURIUM, Strain/Indicator: TA102, Metabolic Activation: NONE, Method: STANDARD PLATE) “inactive; negative”; (Test System: AMES SALMONELLA TYPHIMURIUM, Strain/Indicator: TA102, Metabolic Activation: RAT LIVER S-9, AROCLOR 1254, Method: STANDARD PLATE) “inactive; negative”; (Test System: AMES SALMONELLA TYPHIMURIUM, Strain/Indicator: TA1535, Metabolic Activation: HAMSTER LIVER S-9, AROCLOR 1254, Method: STANDARD PLATE) “inactive; negative”; under setting [3], “inactive; negative”; (Test System: AMES SALMONELLA TYPHIMURIUM, Strain/Indicator: TA1535, Metabolic Activation: RAT LIVER S-9, AROCLOR 1254, Method: STANDARD PLATE) “inactive; negative”. Besides, the mutagenic call is, setting by setting: (Test System: AMES SALMONELLA TYPHIMURIUM, Strain/Indicator: TA1537, Metabolic Activation: HAMSTER LIVER S-9, AROCLOR 1254, Method: STANDARD PLATE) “inactive; negative”; under setting [4], “inactive; negative”; (Test System: AMES SALMONELLA TYPHIMURIUM, Strain/Indicator: TA1537, Metabolic Activation: RAT LIVER S-9, AROCLOR 1254, Method: STANDARD PLATE) “inactive; negative”; (Test System: Mouse lymphoma, Strain/Indicator: L5178Y (tk+/tk-), Metabolic Activation: None, Method: Suspension/plate) “inactive; negative”; (Test System: Mouse lymphoma, Strain/Indicator: L5178Y (tk+/tk-), Metabolic Activation: Rat, Liver, S-9, Aroclor 1254, Method: Suspension/plate) “active; equivocal (previous evaluation positive)”.

In the case of `O=[N+]([O-])c1ccc(N=Nc2ccc(N(CCO)CCO)cc2)c([N+](=O)[O-])c1`, the mutagenic call runs as follows: under setting [1], “active; positive”; (Test System: AMES SALMONELLA TYPHIMURIUM, Strain/Indicator: TA98, Metabolic Activation: RAT, LIVER, S-9, AROCLOR 1254, Method: STANDARD PLATE) “active; positive”; under setting [2], “active; positive”; (Test System: AMES SALMONELLA TYPHIMURIUM, Strain/Indicator: TA100, Metabolic Activation: RAT, LIVER, S-9, AROCLOR 1254, Method: STANDARD PLATE) “active; positive”; under setting [3], “active; positive”; (Test System: AMES SALMONELLA TYPHIMURIUM, Strain/Indicator: TA1535, Metabolic Activation: RAT, LIVER, S-9, AROCLOR 1254, Method: STANDARD PLATE) “active; positive”. In addition, the mutagenic call runs as follows: under setting [4], “active; positive”; (Test System: AMES SALMONELLA TYPHIMURIUM, Strain/Indicator: TA1537, Metabolic Activation: RAT, LIVER, S-9, AROCLOR 1254, Method: STANDARD PLATE) “active; positive”; (Test System: AMES SALMONELLA TYPHIMURIUM, Strain/Indicator: TA1538, Metabolic Activation: NONE, Method: STANDARD PLATE) “active; positive”; (Test System: AMES SALMONELLA TYPHIMURIUM, Strain/Indicator: TA1538, Metabolic Activation: RAT, LIVER, S-9, AROCLOR 1254, Method: STANDARD PLATE) “active; positive”; (Test System: CHINESE HAMSTER V-79, Strain/Indicator: V-79 (HGPRT)/6-THIOGUANINE, Metabolic Activation: RAT, LIVER, S-9, AROCLOR 1254) “active; positive”; (Test System: CHINESE HAMSTER V-79, Strain/Indicator: V-79/6-THIOGUANINE, Metabolic Activation: NONE) “inactive; negative”. Under “Test System: UDS RAT HEPATOCYTES, Strain/Indicator: THY INCORP, Metabolic Activation: NONE, Method: AUTORADIOGRAPHY”, the mutagenic call is “inactive; negative”.

Turning to `O=C1C=Cc2c(ccc3ccccc23)C1=O`, the mutagenic call is “inactive; negative” (Test System: AMES SALMONELLA TYPHIMURIUM, Strain/Indicator: TA97A, Metabolic Activation: NONE, Method: PREINCUBATION); “inactive; negative” (Test System: AMES SALMONELLA TYPHIMURIUM, Strain/Indicator: TA98, Metabolic Activation: NONE, Method: PREINCUBATION); “inactive; negative” (Test System: AMES SALMONELLA TYPHIMURIUM, Strain/Indicator: TA100, Metabolic Activation: NONE, Method: PREINCUBATION); “inactive; negative” (Test System: AMES SALMONELLA TYPHIMURIUM, Strain/Indicator: TA102, Metabolic Activation: NONE, Method: PREINCUBATION); “active; positive” (Test System: AMES SALMONELLA TYPHIMURIUM, Strain/Indicator: TA104, Metabolic Activation: NONE, Method: PREINCUBATION).
